# According to patent US11235023B2, “Beta-hairpin peptidomimetic with elastase inhibitory activity and aerosol dosage forms thereof” (POLYPHOR AG, priority 2016, dated 2022):
# Non-standard residues stand in square brackets, D forms with d. Residues, ends and D or L forms follow the SMILES beside them. Gly(octyl) = CCCCCCCC[C@H](N)C(=O)O
# Columns and labels:
# [1] = GLP-compliant 28-day inhalation toxicity study in rats; assay type: in vivo, rat
# Method: In a GLP-compliant 28-day inhalation toxicity study in rats, conducted by Charles River Laboratories Preclinical Services, Tranent, Edinburgh, UK, the formulation described in Example 2 and dilutions thereof as well as the vehicle were administered using the Pari eFlow® XL 30 nebulizer device (Pari Pharma, Starnberg, Germany) for 100 min per day for 28 days, followed by a 2-week recovery period. […] Ten animals were used for the main toxicity study, and 5 additional animals for the recovery phase. Parameters assessed included clinical signs, body weights, food consumption, ophthalmic examination, clinical pathology, gross necropsy findings, organ weights and histopathologic examinations. […] This was associated with reduction in food consumption in treated animals. There was a good recovery in body weight gain during the recovery period between day 28 and 42.
# [2] = GLP-compliant 28-day inhalation toxicity study in monkeys; assay type: in vivo, cynomolgus monkey
# Method: In a GLP-compliant 28-day inhalation toxicity study in cynomolgus monkeys, conducted by Charles River Laboratories Preclinical Services, Tranent, Edinburgh, UK, the formulation described in Example 2 and dilutions thereof as well as the vehicle were administered using the Pari eFlow® XL 30 nebulizer device (Pari Pharma, Starnberg, Germany) with an oro-nasal inhalation mask for 60 min per day for 28 days, followed by a 2-week recovery period. […] In total five males and five females were used for each dose of the toxicity study including recovery. Parameters assessed included clinical signs, body weights, electrocardiology, ophthalmic examination, clinical pathology, toxicokinetic parameters in the plasma, gross necropsy findings, organ weights and histopathologic examinations.
# [3] = First-in-man study in healthy subjects, safety and tolerability of orally inhaled single doses; assay type: in vivo, human
# From the text: In this randomised, double-blind, placebo-controlled, parallel-group (per dose level) dose-escalation study of inhaled single doses in 48 healthy subjects in six dose groups of eight subjects each, conducted by Inamed GmbH, Gauting, Germany, the controlled oral inhalation of the formulation described in Example 1 and dilutions thereof as well as the placebo (0.5% [w/w] aqueous sodium chloride solution adjusted to pH 5.5 with 1 M HCl pharmaceutical grade) occurred via the Pari eFlow® XL 30 nebulizer device (Pari Pharma GmbH, Starnberg, Germany). The dose levels and corresponding concentrations of cyclo(-OctG-Glu-Thr-Ala-Ser-Ile-Pro-Pro-Gln-Lys-Tyr-^DPro-Pro-) (active compound) are summarized in Table 10.
# The volume of placebo nebulizer solution corresponded to that of the active compound at a particular dose level. The duration of inhalation depended on the total volume of nebulizer solution and ranged between several minutes and roughly one hour. Adverse events were tabulated and summarized according to the current version of Medical Dictionary for Regulatory Activities.
# [4] = Phase-Ib study in CF patients, sputum concentrations (LC-MS/MS); assay type: in vivo, human
# Method: Concentrations of active compound in sputum were calculated and Cmax and AUC0-tlast were determined.
# Spontaneous sputum samples for PK assessments were collected during the following time intervals/periods:
# On Day −1 as soon as possible after the subject's arrival at the study site (blank PK), on Day 1 in the period of time between 1 h and 3 h after start of inhalation, and in the morning of Day 2, at approx. 24 h after start of inhalation. Moreover, any spontaneous sputum expectoration between 0-1 h after start of inhalation was collected.
# Spontaneous sputum samples were collected in polystyrene Petri dishes and put on ice immediately. All processing steps had to be performed with cold reagents and on ice whenever possible. Plugs were separated from saliva, but the latter was not discarded. If a sputum sample was taken for both PK and neutrophil elastase activity in sputum analysis, the plug was split in 2 approximately equal parts. One part was processed for PK analysis the other one for evaluation of neutrophil elastase activity in sputum.
# For PK processing, the resulting plug was split in approximately 2 equal parts. […] The weight of the sputum samples (SP1+SP3) was determined and all samples were immediately put on dry ice for freezing. […]
# The pharmacokinetic parameters mentioned above were calculated based on actual blood and sputum sampling times using non-compartmental procedures.
smiles,measurement,setting,value
"CCCCCCCC[C@@H]1NC(=O)[C@@H]2CCCN2C(=O)[C@H]2CCCN2C(=O)[C@H](Cc2ccc(O)cc2)NC(=O)[C@H](CCCCN)NC(=O)[C@H](CCC(N)=O)NC(=O)[C@@H]2CCCN2C(=O)[C@@H]2CCCN2C(=O)[C@H]([C@@H](C)CC)NC(=O)[C@H](CO)NC(=O)[C@H](C)NC(=O)[C@H]([C@@H](C)O)NC(=O)[C@H](CCC(=O)O)NC1=O [active compound, cyclo(-OctG-Glu-Thr-Ala-Ser-Ile-Pro-Pro-Gln-Lys-Tyr-^DPro-Pro-)] (cyclo([Gly(octyl)]ETASIPPQKY[dP]P))",NOAEL at 28 days,"[1]; in vivo, inhaled or intranasal, rat, inhalation 100 min per day for 28 days, read-out: No Observed Adverse Effect Level (NOAEL)",119 mg/kg/day
same,Body weight gain,[1]; male rats at 119 mg/kg/day vs vehicle control,Slightly reduced
same,Clinical signs and ophthalmic findings,"[1]; rat, 11, 53 and 119 mg/kg/day",no clinical signs or ophthalmic findings
same,"Clinical pathology (haematology, coagulation, clinical chemistry, urinalysis)","[1]; rat, in vivo",no findings in clinical pathology
same,Histopathology of the larynx,"[1]; rat, in vivo",focal minimal squamous metaplasia without cellular atypia of dysplasia
same,Histopathology of the lungs,"[1]; rat, in vivo",minimal to moderate multifocal alveolar macrophage accumulation
same,NOAEL at 28 days,"[2]; both sexes, in vivo, inhaled or intranasal, cynomolgus monkey, oro-nasal inhalation 60 min per day for 28 days",112 mg/kg/day
same,Haematology and clinical pathology,"[2]; cynomolgus monkey, in vivo","some minor, toxicologically insignificant changes"
same,Histopathologic findings,"[2]; cynomolgus monkey, in vivo","increased numbers of alveolar macrophages, perivascular/peribronchiolar infiltrates, and granular eosinophilic deposits in the lung and lymphoid hyperplasia in the tracheobronchial lymph nodes"
same,Gross findings: lung weight,[2]; male monkeys at 112 mg/kg/day,increased lung weight
same,"Body weight, clinical signs, ophthalmic, electrocardiographic and urinary findings","[2]; monkey, 11.2, 30.1 and 112 mg/kg/day","no body weight changes, clinical signs, ophthalmic or electrocardiographic findings or changes in urinary parameters attributable to drug treatment"
same,"Deaths, serious and other significant adverse events","[3]; healthy subjects, single inhaled doses 20-960 mg","No death, no serious adverse events (AE) and no other significant AE"
same,"Inhalation-related adverse events ('cough'), local tolerability","[3]; human, in vivo",three
same,Number of subjects with AEs,"[3]; human, in vivo",13
same,Number of treatment-emergent adverse events (TEAEs),"[3]; human, in vivo",24
same,Proportion of subjects with AEs,"[3]; human, in vivo",27.1%
same,Subjects judging overall tolerability as 'very good' or 'good',"[3]; human, in vivo",97.9%
same,Detection in sputum at 24 h after inhalation,[4]; all dose groups,still detected
same,Concentration in sputum relative to plasma,[4]; comparison of FIG. 4 and FIG. 3,approximately 10^3 fold
